Reference: patent US20080206219A1, “Novel Indications for Transforming Growth Factor-Beta Regulators” (THE REGENCTS OF THE UNIVERSITY OF CALIFORNIA, priority 2003, published 2008)

Columns and labels:
Assay type in all cases: in vivo
[1] = system: control and Collα1(I)r/r mice; assay: Fluorescent angiography of whole mounted ears after mustard oil
[2] = system: Collα1(I)+/+ and Collα1(I)r/r mice; assay: Miles assay: Evans blue leakage in ears after mustard oil challenge; settings: for Evans blue staining of ears following MO exposure: 5% mustard oil in mineral oil
Procedure: Evans blue (EB) dye (30 mg/kg in 100 μl PBS; Sigma-Aldrich) was injected into the tail vein of 7- to 8-week-old mice. In some experiments, after 1-min, 30 μl of 5% mustard oil (Phenyl Isothiocyanate, 98%, Sigma-Aldrich) diluted in mineral oil (Sigma-Aldrich) was applied to the dorsal and ventral surfaces of the ear; the application process was repeated 15 minutes later. Isoflurane anesthesized mice were photographed 30 minutes after injection of EB dye. Anesthesized mice were then cardiac perfused, ears removed, blotted dry and weighed. EB dye was extracted from ears in 1 ml of formamide overnight to 48-hrs at 60° C. and measured spectrophotometrically at 610 nm in a SpectraMax 340™ (Molecular Devices). Data are expressed as mean±SEM. Comparisons of the amounts of dye extravasation were evaluated by Mann-Whitney statistical test with p values less than 0.05 considered significant. In some experiments, 5-min prior to the infusion of EB dye, shaved 5-to 7-week old mice were injected (10 μl) intradermally with one of the following agents at the concentrations shown (VEGF120, R&D Systems; VEGF164, Chemicon; histamine, Calbiochem; serotonin, Sigma-Aldrich) and the appearance of a blue spot monitored for 30 minutes at which time mice were euthanized, cardiac perfused, photographed and the area of skin surrounding the site of injection excised (˜5 mm^2), photographed and EB dye extracted as above. […]
The vascular physiology in a mouse model of human Sc, e.g., Collα1(I)^r/r mice, was studied to determine whether an altered balance between collagen synthesis, accumulation and/or degradation was a rate-limiting factor for efficient vascular physiology prior to histopathologic appearance of Sc disease. The ears of Collα1(I)^r/r versus littermate control (Collα1(I)^+/+) mice were treated with vehicle alone (mineral oil; FIG. 1A) or mustard oil (MO; 5% in mineral oil: right ear), an inflammatory agent that induces plasma leakage, vasodilation of capillaries and inflammation in the skin (FIG. 1A). Evans blue dye (30 mg/kg in 100 μl PBS; Sigma Chemical Co., St. Louis, Mo., USA) was injected into the tail vein of the mice. After 1 minute, 5% mustard oil (Phenyl Isothiocyanate, 98%, Sigma) diluted in mineral oil (Sigma) was applied to the dorsal and ventral surfaces of the ear with a cotton swab; the application process was repeated 15 minutes later. […] Isoflurane anesthesized mice were photographed 30 minutes after injection of Evans blue dye. Anesthesized mice were then cardiac perfused, ears removed, blotted dry, and weighed. The Evans blue dye was extracted from the ears with 1 ml of formamide overnight at 60° C. and measured spectrophotometrically at 610 nm in a SpectraMax 340™ (Molecular Devices). Data are expressed as mean±SEM. Comparisons of the amounts of dye extravasation were evaluated by the Fisher's t test with p values less than 0.05 considered significant.
Vascular permeability (VP) responses in control and Collα1(I)^r/r mice treated with a broad spectrum synthetic metalloproteinase inhibitor (MPI), e.g., GM6001 were examined. GM6001 (N-[(2R)-2(hydroxyamidocarbonylmethyl)-4-methylpantanoyl]-L-tryptophan ethylamide), a broad, class-specific metalloproteinase inhibitor (Chemicon, Temecula Calif.), was administered daily i.p. at 100 mg/kg body weight as a 20 mg/ml slurry in 4% carboxymethylcellulose in 0.9% PBS daily for 3-days. Controls were treated with a daily injection of 4% carboxymethylcellulose in PBS. The animals were then subject to cutaneous challenge with MO and qualitative and quantitative assessment of Evans blue dye leakage into vascular stroma (FIG. 5A).

[3] = system: control and Collα1(I)r/r mice; assay: Modified Miles assay: intradermal injection of permeability-inducing agents; settings: for Evans blue leakage response after intradermal injection: Collα1(I)r/r mice versus control mice, all concentrations tested; for leakage of Evans blue dye into stroma after intradermal injection: control mice, increasing concentrations
Procedure: Evans blue (EB) dye (30 mg/kg in 100 μl PBS; Sigma-Aldrich) was injected into the tail vein of 7- to 8-week-old mice. In some experiments, after 1-min, 30 μl of 5% mustard oil (Phenyl Isothiocyanate, 98%, Sigma-Aldrich) diluted in mineral oil (Sigma-Aldrich) was applied to the dorsal and ventral surfaces of the ear; the application process was repeated 15 minutes later. Isoflurane anesthesized mice were photographed 30 minutes after injection of EB dye. Anesthesized mice were then cardiac perfused, ears removed, blotted dry and weighed. EB dye was extracted from ears in 1 ml of formamide overnight to 48-hrs at 60° C. and measured spectrophotometrically at 610 nm in a SpectraMax 340™ (Molecular Devices). Data are expressed as mean±SEM. Comparisons of the amounts of dye extravasation were evaluated by Mann-Whitney statistical test with p values less than 0.05 considered significant. In some experiments, 5-min prior to the infusion of EB dye, shaved 5-to 7-week old mice were injected (10 μl) intradermally with one of the following agents at the concentrations shown (VEGF120, R&D Systems; VEGF164, Chemicon; histamine, Calbiochem; serotonin, Sigma-Aldrich) and the appearance of a blue spot monitored for 30 minutes at which time mice were euthanized, cardiac perfused, photographed and the area of skin surrounding the site of injection excised (˜5 mm^2), photographed and EB dye extracted as above.
The vascular leakage in control and Collα1(I)^r/r mice following intradermal injection of other agents known to induce vascular leakage, e.g., VEGFA120, VEGFA164 and serotonin (versus vehicle alone), by interacting with distinct cell surface receptors, e.g., VEGF receptor-2 (VEGFR2) and serotonin receptors, respectively (FIG. 3A) were assessed. 5 min prior to the infusion of Evans blue dye, shaved 5-to 7-week old mice were injected (10 μl) intradermally with VEGF120 (R&D Systems) VEGF164 (Chemicon; histamine, Calbiochem) serotonin (Sigma) TIMP-1 (Oncogene Research Products, San Diego Calif.) and the appearance of a blue spot monitored for 30 minutes at which time mice were euthanized, cardiac perfused, photographed and the area of skin surrounding the site of injection excised (˜5 mm^2), photographed and Evans blue dye extracted as above.

VEGFR2 = biological target: T1, VEGFR2 (Mus musculus, UniProt P35918); assay: VEGFR2 phosphorylation, IP-western of tissue lysates after intradermal VEGF164; settings: control and Collα1(I)r/r mice; VEGF164 10 ng i.d.
T1 construct: tissue lysates were subjected to immunoprecipitation with anti-VEGFR2 antibodies; from tissue; host or cells: mouse skin after intradermal VEGF164 or BSA
T1 sequence (P35918 20-1345): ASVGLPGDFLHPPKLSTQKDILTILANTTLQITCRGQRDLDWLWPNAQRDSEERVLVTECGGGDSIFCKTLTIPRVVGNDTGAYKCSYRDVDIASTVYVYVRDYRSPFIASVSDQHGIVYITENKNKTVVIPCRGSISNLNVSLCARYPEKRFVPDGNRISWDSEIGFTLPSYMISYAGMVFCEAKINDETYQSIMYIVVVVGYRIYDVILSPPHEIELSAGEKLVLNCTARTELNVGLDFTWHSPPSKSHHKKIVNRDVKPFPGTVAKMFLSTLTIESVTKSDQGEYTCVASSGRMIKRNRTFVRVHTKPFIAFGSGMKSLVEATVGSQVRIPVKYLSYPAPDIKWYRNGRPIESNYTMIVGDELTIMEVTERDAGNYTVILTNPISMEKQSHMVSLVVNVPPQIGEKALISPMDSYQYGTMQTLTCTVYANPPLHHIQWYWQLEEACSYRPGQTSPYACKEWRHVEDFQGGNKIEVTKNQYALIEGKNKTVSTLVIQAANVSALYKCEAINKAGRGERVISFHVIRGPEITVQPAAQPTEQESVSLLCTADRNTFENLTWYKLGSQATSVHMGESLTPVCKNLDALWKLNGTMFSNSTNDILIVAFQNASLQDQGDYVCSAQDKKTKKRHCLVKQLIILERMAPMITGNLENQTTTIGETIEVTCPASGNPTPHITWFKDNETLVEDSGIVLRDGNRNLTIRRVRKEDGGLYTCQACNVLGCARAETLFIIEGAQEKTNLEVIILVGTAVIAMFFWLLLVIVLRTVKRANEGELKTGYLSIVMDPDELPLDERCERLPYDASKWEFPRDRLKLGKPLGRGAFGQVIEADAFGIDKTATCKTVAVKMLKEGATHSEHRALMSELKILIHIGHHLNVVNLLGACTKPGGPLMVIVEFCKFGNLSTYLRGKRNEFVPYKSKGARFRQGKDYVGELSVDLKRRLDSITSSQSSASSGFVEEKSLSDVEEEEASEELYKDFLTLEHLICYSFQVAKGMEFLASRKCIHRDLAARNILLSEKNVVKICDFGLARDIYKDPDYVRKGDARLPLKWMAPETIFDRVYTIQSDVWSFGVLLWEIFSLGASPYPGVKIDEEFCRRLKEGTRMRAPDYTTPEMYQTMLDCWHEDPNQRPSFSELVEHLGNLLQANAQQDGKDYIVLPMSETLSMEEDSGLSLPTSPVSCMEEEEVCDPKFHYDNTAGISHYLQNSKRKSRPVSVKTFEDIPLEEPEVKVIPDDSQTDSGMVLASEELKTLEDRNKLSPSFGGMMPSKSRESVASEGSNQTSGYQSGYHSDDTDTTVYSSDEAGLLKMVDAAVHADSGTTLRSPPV
Procedure: VEGFR2: Tissue pieces (5 mm^2) from animals were collected from ears or following shaving of back skin or following injection (i.d.) of 10 μl 10 ng VEGF164 or 0.1% BSA in PBS. Tissues were pulverized in liquid N2 followed by lysis in ice-cold buffer containing 20 mM Tris, pH 7.6, 150 mM NaCl, 1 mM EDTA, 50 mM NaF, 1% triton X-100, 0.5% Na-deoxycholate, 0.1% SDS, 2 mM Na2VO4, 10 μg/ml aprotinin, 1 mM phenylmethylsulfonylfluoride and centrifuged at 10,000 rpm for 30-min at 4° C. The supernatants were recentrifuged at 10,000 rpm for 30-min at 4° C. Lysates were then incubated in a slurry of heparin-Sepharose CL-6B (Pharmacia) and incubated overnight rocking at 4C, centrifugation and equilibrated to 150 mM NaCl. Protein was dialyzed against PBS and quantified using the BioRad protein assay system (BioRad). Before immunoprecipitation, BSA was added to the pre-cleared lysates to 0.5%. Equal amounts of protein (1 mg) from lysates were used for immunopreciptations and Western blotting. […]
Following intradermal injection of VEGF164 (10 ng), tissue lysates were subjected to immunoprecipitation with anti-VEGFR2 antibodies, followed by SDS-PAGE electrophoreses of immune complexes and western blot analysis with anti phospho-tyrosine and anti-VEGFR2 antibodies (FIG. 3B). […] Protein was dialyzed against PBS and quantified using the BioRad protein assay system (BioRad, Hercules, Calif.). […]

For `S=C=Nc1ccccc1` [MO, Phenyl Isothiocyanate], the “total vascular area after MO versus vehicle” value ([1]; Collα1(I)r/r mice) was “unchanged”, the “vasodilation of macrovasculature (vessel diameter) after MO” value ([1]; Collα1(I)r/r mice) was “not observed” and the “vasodilation of macrovasculature (vessel diameter) after MO” value ([1]; control mice) was “increased vasodilation of macrovasculature”. The “total vascular area after MO versus vehicle” value ([1]; control mice, p<0.04) was “significant increase in total vascular area”, the “amount of Evans blue leaked in response to MO, lower than in control animals” value ([2]; Collα1(I)r/r mice versus controls, p=0.0002) was roughly 50% and the “Evans blue staining of ears following MO exposure” value ([2]; Collα1(I)r/r mice) was “remained pale with only a modest hint of blue”. The “Evans blue staining of ears following MO exposure” value ([2]; littermate control mice) was “moderately blue”.

With `NCCc1c[nH]c2ccc(O)cc12` [serotonin] the “Evans blue leakage response after intradermal injection” value [3] was “significantly inhibited” and the “leakage of Evans blue dye into stroma after intradermal injection” value [3] was “significant leakage”.

B1: VEGFA164: VEGF164 (Chemicon), agent known to induce vascular leakage via VEGFR2 (protein)
chain: APTTEGEQKSHEVIKFMDVYQRSYCRPIETLVDIFQEYPDEIEYIFKPSCVPLMRCAGCCNDEALECVPTSESNITMQIMRIKPHQSQHIGEMSFLQHSRCECRPKKDRTKPENHCEPCSERRKHLFVQDPQTCKCSCKNTDSRCKARQLELNERTCRCDKPRR
For B1, the “Evans blue leakage response after intradermal injection” value [3] was “significantly inhibited”, the “leakage of Evans blue dye into stroma after intradermal injection” value [3] was “significant leakage” and the “phosphorylation of VEGFR2 following exposure to VEGF” value (VEGFR2) was “similarly increased levels of phosphorylation”.
